Results reported in PMC8210154, “Tumor-selective, antigen-independent delivery of a pH sensitive peptide-topoisomerase inhibitor conjugate suppresses tumor growth without systemic toxicity” (NAR Cancer, 2021).
Residue numbers refer to the chain shown, from its start. Entries after “also recorded” stand apart in the source; their conditions may differ.

What was measured:
[1] = Toxicity in rats (body weight, duodenum H&E histology); assay type: in vivo
Excerpt: Duodenal tissue samples were fixed in 10% neutral buffered formalin, processed and embedded in paraffin. Tissue cross sections (5 μm) were mounted on positively charged microscope slides and stained with hematoxylin and eosin (H&E) (PolyScientific R&D, New York). Images were taken of tissue sections by standard light microscopy using an EVOS FL Cell Imaging System (Life Technologies) for histomorphological evaluation of intestinal inflammation.

[2] = target: T1, TOP1 protein levels in HCT116 tumor tissue (Homo sapiens, UniProt P11387); assay: TOP1 FACS assay, HCT116 xenografted tumor of dosed mice; assay type: in vivo; details: 2.5 μmol/kg for 4 days, 24 h post last dose
T1 construct: Xenograft tumors were excised, weighed, and minced then were digested to single cells; from tissue; host or cells: HCT116 xenograft tumors from athymic nude mice
T1 sequence (P11387 1-765): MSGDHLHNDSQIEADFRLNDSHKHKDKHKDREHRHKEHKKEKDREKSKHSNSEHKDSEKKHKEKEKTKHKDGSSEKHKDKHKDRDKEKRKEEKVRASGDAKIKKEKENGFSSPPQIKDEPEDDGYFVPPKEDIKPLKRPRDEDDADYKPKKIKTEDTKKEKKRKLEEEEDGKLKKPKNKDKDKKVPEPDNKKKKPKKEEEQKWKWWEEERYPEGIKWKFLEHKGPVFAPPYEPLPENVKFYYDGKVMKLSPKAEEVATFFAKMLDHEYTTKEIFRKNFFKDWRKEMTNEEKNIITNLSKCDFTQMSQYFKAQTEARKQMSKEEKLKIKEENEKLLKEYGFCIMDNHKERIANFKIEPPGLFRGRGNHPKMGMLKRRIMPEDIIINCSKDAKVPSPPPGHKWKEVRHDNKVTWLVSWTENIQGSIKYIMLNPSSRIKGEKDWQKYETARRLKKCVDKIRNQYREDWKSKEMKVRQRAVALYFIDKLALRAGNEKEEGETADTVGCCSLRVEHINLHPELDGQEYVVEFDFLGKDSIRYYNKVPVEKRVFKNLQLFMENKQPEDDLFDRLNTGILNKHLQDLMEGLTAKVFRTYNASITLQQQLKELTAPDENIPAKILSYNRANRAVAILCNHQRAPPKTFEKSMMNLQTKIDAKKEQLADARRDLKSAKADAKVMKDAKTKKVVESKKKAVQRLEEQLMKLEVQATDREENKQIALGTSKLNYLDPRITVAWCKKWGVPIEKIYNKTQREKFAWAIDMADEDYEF
Procedure: The vials capped and vortexed for 2 min.
Xenograft tumors were excised, weighed, and minced then were digested to single cells with an enzyme mix (Miltenyi; #130-095-929) for 40 min shaking at 37°C. Enzymes were inactivated by adding equal volume of DMEM^+. Digested cells were sequentially filtered through 70 μm then 40 μm filters and centrifuged at 700 rpm for 7 min at 4°C.
(§1) Tumor and bone marrow cells collected 24 h after dosing were permeabilized and fixed for 20 min on ice in the dark (Cytofix/Cytoperm Becton Dickinson; #554714), then washed 2× with Perm Wash. Cells were stained with rabbit anti-topoisomerase 1 antibody (Abcam; #109374) at 1 μg/ml on ice in the dark for 30 min and washed 2×, followed by staining with secondary antibody goat anti-rabbit IgG AF647 (Jackson ImmunoResearch; #111-605-144 diluted 1:1000) on ice in dark for 30 min. After a final 2× wash, the reduction of topoisomerase I (TOP1) protein levels was evaluated by collecting 10,000 (tumor) or 30,000 (BM) cells and determining the number of TOP1 positive stained cells on a BD Accuri™ flow cytometer.

[3] = Toxicity in mice (bone marrow cell counts, body weight, stomachs)
Procedure: Following tumor collection, mice were euthanized by cervical dislocation under anesthesia in accordance with the American Veterinary Medical Association (AVMA) Guidelines for the Euthanasia of Animals. Femurs were removed, and bone marrow was extruded into 50 mL conical tubes by flushing the bones with a 23-gauge needle fitted on a 5cc syringe containing PBS + 2% fetal bovine serum (FBS). Bone marrow was homogenized by gentle pipetting and filtered through 100 μm nylon mesh filters and cells were pelleted by centrifugation at 1200 rpm for 5 min at 4°C. Red blood cells were lysed with 3 mL of lysis buffer for 2 min at room temperature. PBS was added to a volume of 25 mL and cells were re-pelleted by centrifugation as described above. Cell pellets were suspended in 5 mL of PBS and cell count was assessed by trypan blue exclusion on a TC-20 cell counter (BioRad).

[4] = system: MDA-MB-231 cells; assay: Short-term viability assay, MDA-MB-231 cells; assay type: cell-based; details: Homo sapiens
Procedure: (§2) Microplate-based short-term viability and synergy assays were performed as described previously ([18]).

[5] = system: MDA-MB-231 cells; assay: Synergy assay (Bliss) exatecan with talazoparib, MDA-MB-231 cells; assay type: cell-based, human; details: Bliss synergy analysis
[6] = target: T2, TOP1 protein levels in bone marrow (Mus musculus, UniProt Q04750); assay: TOP1 FACS assay, bone marrow of dosed mice; assay type: in vivo; details: 2.5 μmol/kg for 4 days, 24 h post last dose
T2 construct: Mouse bone marrow cells were isolated as described above; from tissue; host or cells: bone marrow of athymic nude mice bearing HCT116 xenografts
T2 sequence (Q04750 1-767): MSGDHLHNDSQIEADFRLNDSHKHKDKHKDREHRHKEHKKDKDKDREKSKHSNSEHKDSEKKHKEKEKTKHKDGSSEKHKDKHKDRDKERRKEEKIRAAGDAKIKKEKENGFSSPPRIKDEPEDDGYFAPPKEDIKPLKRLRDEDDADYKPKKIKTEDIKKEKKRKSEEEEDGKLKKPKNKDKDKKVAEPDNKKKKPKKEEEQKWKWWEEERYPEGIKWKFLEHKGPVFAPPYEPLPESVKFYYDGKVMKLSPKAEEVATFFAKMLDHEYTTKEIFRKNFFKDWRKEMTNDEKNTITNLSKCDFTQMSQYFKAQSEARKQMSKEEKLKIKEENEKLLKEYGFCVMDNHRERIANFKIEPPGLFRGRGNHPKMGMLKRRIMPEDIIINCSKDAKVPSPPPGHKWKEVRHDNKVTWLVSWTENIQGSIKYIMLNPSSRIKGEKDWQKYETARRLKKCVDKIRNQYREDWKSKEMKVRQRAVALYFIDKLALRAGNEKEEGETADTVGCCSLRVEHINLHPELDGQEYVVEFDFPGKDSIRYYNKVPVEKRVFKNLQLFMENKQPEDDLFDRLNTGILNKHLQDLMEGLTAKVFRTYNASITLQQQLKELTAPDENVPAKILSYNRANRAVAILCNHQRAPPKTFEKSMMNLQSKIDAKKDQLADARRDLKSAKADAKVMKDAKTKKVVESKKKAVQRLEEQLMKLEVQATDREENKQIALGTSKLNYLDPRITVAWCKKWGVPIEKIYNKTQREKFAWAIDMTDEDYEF
Procedure: Mouse bone marrow cells were isolated as described above.
as §1

[7] = system: γH2AX in HCT116 flank tumors; assay: γH2AX immunofluorescence assay in HCT116 flank tumors; assay type: in vivo, mice; details: 1.15 mg/kg exatecan, P < 0.001
Procedure: Tumors were collected as detailed above, and FFPE tumor slides were created for IF staining. Antigen retrieval was performed using a heat-induced epitope retrieval (HIER) method, with TRIS-EDTA pH 9.0. Staining with primary antibody (mouse anti-human γH2AX; 1:500, Invitrogen) followed by secondary antibody (Goat anti-mouse Ax594; 1:1000, Invitrogen) was then performed. Images were obtained with a Keyence imager. Data analysis was performed in ImageJ and CellProfiler ([16]). Raincloud plots and heatmap were generated in R version 4.0.3 ([17]). Statistical analysis for γH2AX expression was performed using Kruskal–Wallis test, followed by Dunn's multiple comparison test (GraphPad Prism 9.1.0).

[8] = system: HCT116 cells; assay: In vitro cell killing, HCT116 cells; assay type: cell-based; details: Homo sapiens, HCT-116, data not shown
Procedure: as §2

[9] = target: T3, TOP1 protein levels in HCT116 cells (Homo sapiens, UniProt P11387); assay: TOP1 FACS assay, HCT116 cells dosed in vitro; assay type: cell-based; details: 24 h, read-out: IC50 for TOP1 protein levels
T3 construct: endogenous in cells; host or cells: HCT116 cells
T3 sequence (P11387 1-765): T1 sequence (P11387 1-765)
Procedure: HCT116 cells were plated at 2.5 × 10^5/mL in 2 mL DMEM^+ in six-well plates. Cells were allowed to attach overnight in 37°C incubator before compound addition. […] Cells were scraped, washed with PBS and counted.
as §1

[10] = system: MKN45 xenografts; assay: MKN45 xenograft in nude mice; details: MKN45 flank model, 2.3 mg/kg (equimolar to 20 mg/kg CBX-12)
[11] = target: T4, TOP1 protein levels in rat bone marrow cells (Rattus norvegicus, UniProt Q9WUL0); assay: TOP1 FACS assay, rat bone marrow cells dosed ex vivo; assay type: cell-based; details: rat bone marrow cells in vitro, 24 h; read-out: IC50 for TOP1 protein levels
T4 construct: from tissue; host or cells: rat bone marrow cells, dosed ex vivo
T4 sequence (Q9WUL0 1-767): T2 sequence (Q04750 1-767) with E77D, R90K, L141P, S167L, P197A, S239G, R665K
Procedure: Naïve Sprague-Dawley rat bone marrow cells were plated at 1 × 10^6/ml in 2 mL of RPMI^+ in six-well plates. Cells were allowed to incubate for 3 h at 37°C before compound addition. […] Cells were harvested, washed with PBS and counted.
as §1

CC[C@@]1(O)C(=O)OCc2c1cc1n(c2=O)Cc2c-1nc1cc(F)c(C)c3c1c2[C@@H](N)CC3 [exatecan]
GI toxicity microscopically (H&E of duodenum) ([1]; rat, in vivo): significant GI toxicity
body weight ([1]; rats (Figure 3C)): significant and unrecoverable body weight reductions
TOP1 protein levels in HCT116 flank tumor tissue [2]: decreased
body weight ([3]; mice (Figure 3B)): significant and unrecoverable body weight reductions
bone marrow cell counts ([3]; mice, equimolar doses): drastic bone marrow suppression
IC50 [4]: 0.00021 µM
interaction when combined with talazoparib [5]: robust synergy
TOP1 protein levels in bone marrow [6]: decreased
γH2AX expression after second cycle compared to first cycle [7]: significant higher γH2AX expression; also recorded: significantly higher γH2AX expression
IC50 [8]: 0.0002 µM
DC50 [9]: 0.0248 µM
tolerability [10]: not tolerated and was lethal in all animals
DC50 [11]: 0.0273 µM
